Test results reported in US7648996B2 (Biotica Technology Limited, priority 2005, dated 2010).
Marks after values point to notes of the source that are not given here.

Key:
[1] = test system: 1138L; test: Monolayer proliferation assay (modified propidium iodide); format: cell-based, human; details: mean of duplicate experiments
Description: (§1) In vitro evaluation of compounds for anticancer activity in a panel of 12 human tumour cell lines in a monolayer proliferation assay was carried out at the Oncotest Testing Facility, Institute for Experimental Oncology, Oncotest GmbH, Freiburg.
(§2) The Oncotest cell lines were established from human tumor xenografts as described by Roth et al. 1999. The origin of the donor xenografts was described by Fiebig et al. 1999. Other cell lines were either obtained from the NCI (H460, SF-268, OVCAR-3, DU145, MDA-MB-231, MDA-MB-468) or purchased from DSMZ, Braunschweig, Germany (LNCAP).
(§3) All cell lines, unless otherwise specified, are grown at 37° C. in a humidified atmosphere (95% air, 5% CO2) in a ‘ready-mix’ medium containing RPMI 1640 medium, 10% fetal calf serum, and 0.1 mg/mL gentamicin (PAA, Cölbe, Germany).
(§4) A modified propidium iodide assay was used to assess the effects of the test compound(s) on the growth of twelve human tumor cell lines (Dengler et al., (1995)).
(§5) Briefly, cells were harvested from exponential phase cultures by trypsinization, counted and plated in 96 well flat-bottomed microtitre plates at a cell density dependent on the cell line (5-10,000 viable cells/well). After 24 h recovery to allow the cells to resume exponential growth, 0.01 mL of culture medium (6 control wells per plate) or culture medium containing macbecin are added to the wells. Each concentration is plated in triplicate. […] Following 4 days of continuous exposure, cell culture medium with or without test compound is replaced by 0.2 mL of an aqueous propidium iodide (PI) solution (7 mg/L). To measure the proportion of living cells, cells are permeabilized by freezing the plates. After thawing the plates, fluorescence is measured using the Cytofluor 4000 microplate reader (excitation 530 nm, emission 620 nm), giving a direct relationship to the total number of viable cells.
(§6) Growth inhibition is expressed as treated/control×100 (% T/C). For active compounds, IC50 & IC70 values were estimated by plotting compound concentration versus cell viability.

[2] = test system: 251L; test: as above; format: cell-based, human; details: mean of duplicate experiments
Description: as §1, §2, §3, §4, §5, §6

[3] = test system: 394NL; test: as above; format: cell-based, human; details: mean of duplicate experiments
Description: as §1, §2, §3, §4, §5, §6

[4] = test system: A498; test: as above; format: cell-based, human; details: mean of duplicate experiments
Description: as §1, §2, §3, §4, §5, §6

[5] = test system: DU145; test: as above; format: cell-based, human; details: mean of duplicate experiments
Description: as §1, §2, §3, §4, §5, §6

[6] = test system: H460; test: as above; format: cell-based, human; details: mean of duplicate experiments
Description: as §1, §2, §3, §4, §5, §6

[7] = test system: LNCAP; test: as above; format: cell-based, human; details: mean of duplicate experiments
Description: as §1, §2, §3, §4, §5, §6

[8] = test system: MCF7; test: as above; format: cell-based, human; details: mean of duplicate experiments
Description: as §1, §2, §3, §4, §5, §6

[9] = test system: MDA231; test: as above; format: cell-based, human; details: mean of duplicate experiments
Description: as §1, §2, §3, §4, §5, §6

[10] = test system: MDA468; test: as above; format: cell-based, human; details: mean of duplicate experiments
Description: as §1, §2, §3, §4, §5, §6

[11] = test system: OVCAR3; test: as above; format: cell-based, human; details: mean of duplicate experiments
Description: as §1, §2, §3, §4, §5, §6

[12] = test system: SF268; test: as above; format: cell-based, human; details: mean of duplicate experiments
Description: as §1, §2, §3, §4, §5, §6

[13] = test system: panel of 12 human tumour cell lines; test: Monolayer proliferation assay, mean across the cell lines tested; format: cell-based; details: for IC50: Homo sapiens
Description: as §1, §2, §3, §4, §5, §6

[14] = biological target: FKBP12 (Homo sapiens, UniProt P62942); test: FKBP-12 in vitro binding assay (GdnHCl denaturation curve shift)
Sequence of FKBP12 (P62942 whole entry): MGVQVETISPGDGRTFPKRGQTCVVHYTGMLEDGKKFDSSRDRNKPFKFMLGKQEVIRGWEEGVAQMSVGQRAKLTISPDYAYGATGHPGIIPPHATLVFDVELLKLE
Description: FKBP12 reversibly unfolds in the chemical denaturant guandinium hydrochloride (GdnHCl) and the unfolding can be monitored by the change in the intrinsic fluorescence of the protein (Main et al, 1998). Ligands which specifically bind and stabilise the native state of FKBP12 shift the denaturation curve such that the protein unfolds at higher concentrations of chemical denaturant (Main et al, 1999). From the difference in stability, the ligand-binding constant can be determined using equation 1.
[formula] where ΔGapp is the apparent difference in free energy of unfolding between free and ligand-bound forms, ΔGD-N^H^2^O is the free energy of unfolding in water of free protein, [L] the concentration of ligand and Kd the dissociation constant for the protein-ligand complex (Meiering et al, 1992). The free energy of unfolding can be related to the midpoint of the unfolding transition using the following equation: ΔGD-N^H^2^O=mD-N[D]50% (2) where mD-N is a constant for a given protein and given denaturant and which is proportional to the change in degree of exposure of residues on unfolding (Tanford 1968 and Tanford 1970), and [D]50% is the concentration of denaturant corresponding to the midpoint of unfolding. […] Under conditions where [L]>Kd, then, ΔΔGD-N, can be related to the relative Kds of the two compounds through equation 4: […]

[15] = mean across the 12 cell lines tested
[16] = mean based on the 9 cell lines for which data was available

## CO[C@H]1C[C@@H]2CC[C@@H](C)[C@@](O)(O2)C(=O)C(=O)N2CCCC[C@H]2C(=O)O[C@H]([C@H](C)C[C@@H]2CC[C@@H](O)[C@H](OC)C2)CC(=O)[C@H](C)/C=C(\C)[C@@H](O)[C@@H](OC)C(=O)[C@H](C)C[C@H](C)/C=C/C=C/C=C/1C [Rapamycin, reference compound]
[1]; 1 μM
  Cell Growth (Test/Control (%) at drug concentration): 42%
[1]; 10 μM
  Cell Growth (Test/Control (%) at drug concentration): 21.5%
[2]; 1 μM
  Cell Growth (Test/Control (%) at drug concentration): 75.5%
[2]; 10 μM
  Cell Growth (Test/Control (%) at drug concentration): 40%
[3]; 1 μM
  Cell Growth (Test/Control (%) at drug concentration): 45%
[3]; 10 μM
  Cell Growth (Test/Control (%) at drug concentration): 44%
[4]; A498, 1 μM
  Cell Growth (Test/Control (%) at drug concentration): 58.5%
[4]; A498, 10 μM
  Cell Growth (Test/Control (%) at drug concentration): 48.5%
[5]; DU145, 1 μM
  Cell Growth (Test/Control (%) at drug concentration): 50.5%
[5]; DU145, 10 μM
  Cell Growth (Test/Control (%) at drug concentration): 54%
[6]; H460, 1 μM
  Cell Growth (Test/Control (%) at drug concentration): 67%
[6]; H460, 10 μM
  Cell Growth (Test/Control (%) at drug concentration): 66%
[7]; 1 μM
  Cell Growth (Test/Control (%) at drug concentration): 61%
[7]; 10 μM
  Cell Growth (Test/Control (%) at drug concentration): 34%
[8]; MCF7, 1 μM
  Cell Growth (Test/Control (%) at drug concentration): 68.5%
[8]; MCF7, 10 μM
  Cell Growth (Test/Control (%) at drug concentration): 26.5%
[9]; MDA231, 1 μM
  Cell Growth (Test/Control (%) at drug concentration): 67%
[9]; MDA231, 10 μM
  Cell Growth (Test/Control (%) at drug concentration): 63.5%
[10]; MDA468, 1 μM
  Cell Growth (Test/Control (%) at drug concentration): 56.5%
[10]; MDA468, 10 μM
  Cell Growth (Test/Control (%) at drug concentration): 32%
[11]; OVCAR3, 1 μM
  Cell Growth (Test/Control (%) at drug concentration): 69%
[11]; OVCAR3, 10 μM
  Cell Growth (Test/Control (%) at drug concentration): 69.5%
[12]; SF268, 1 μM
  Cell Growth (Test/Control (%) at drug concentration): 53.5%
[12]; SF268, 10 μM
  Cell Growth (Test/Control (%) at drug concentration): 46%
[13]; [15]
  IC50: 3500 nM
  Mean IC70: 9.1 µM

## COC1CC2CCC(C)C(O)(O2)C(=O)C(=O)N2CCCCC2C(=O)OC(C(C)CC2CCC(OCCO)CC2)CC(=O)C(C)C=C(C)C(O)C(OC)C(=O)C(C)CC(C)C=CC=CC=C1C (centres unmarked) [39-desmethoxy-40-O-(2-hydroxy)ethyl rapamycin]
[1]; 1 μM
  Cell Growth (Test/Control (%) at drug concentration): 59%
[1]; 10 μM
  Cell Growth (Test/Control (%) at drug concentration): 4%
[2]; 1 μM
  Cell Growth (Test/Control (%) at drug concentration): 90%
[2]; 10 μM
  Cell Growth (Test/Control (%) at drug concentration): 31%
[3]; 1 μM
  Cell Growth (Test/Control (%) at drug concentration): 55%
[3]; 10 μM
  Cell Growth (Test/Control (%) at drug concentration): 6%
[5]; DU145, 1 μM
  Cell Growth (Test/Control (%) at drug concentration): 56%
[5]; DU145, 10 μM
  Cell Growth (Test/Control (%) at drug concentration): 7%
[6]; H460, 1 μM
  Cell Growth (Test/Control (%) at drug concentration): 76%
[6]; H460, 10 μM
  Cell Growth (Test/Control (%) at drug concentration): 25%
[7]; 1 μM
  Cell Growth (Test/Control (%) at drug concentration): 49%
[7]; 10 μM
  Cell Growth (Test/Control (%) at drug concentration): 18%
[8]; MCF7, 1 μM
  Cell Growth (Test/Control (%) at drug concentration): 77%
[8]; MCF7, 10 μM
  Cell Growth (Test/Control (%) at drug concentration): 10%
[11]; OVCAR3, 1 μM
  Cell Growth (Test/Control (%) at drug concentration): 85%
[11]; OVCAR3, 10 μM
  Cell Growth (Test/Control (%) at drug concentration): 9%
[12]; SF268, 1 μM
  Cell Growth (Test/Control (%) at drug concentration): 63%
[12]; SF268, 10 μM
  Cell Growth (Test/Control (%) at drug concentration): 7%
[13]; [16]
  IC50: 2200 nM
  Mean IC70: 5.513* microM
[14]
  Kd: 3.7 nM

## COC1CC2CCC(C)C(O)(O2)C(=O)C(=O)N2CCCCC2C(=O)OC(C(C)CC2CCC(OC(=O)C(C)(CO)CO)CC2)CC(=O)C(C)C=C(C)C(O)C(OC)C(=O)C(C)CC(C)C=CC=CC=C1C (centres unmarked) [39-desmethoxy-40-O-[2,2-bis(hydroxymethyl)propionyl]rapamycin]
[1]; 1 μM
  Cell Growth (Test/Control (%) at drug concentration): 50%
[1]; 10 μM
  Cell Growth (Test/Control (%) at drug concentration): 7.5%
[2]; 1 μM
  Cell Growth (Test/Control (%) at drug concentration): 85.5%
[2]; 10 μM
  Cell Growth (Test/Control (%) at drug concentration): 13%
[3]; 1 μM
  Cell Growth (Test/Control (%) at drug concentration): 46%
[3]; 10 μM
  Cell Growth (Test/Control (%) at drug concentration): 13%
[4]; A498, 1 μM
  Cell Growth (Test/Control (%) at drug concentration): 66%
[4]; A498, 10 μM
  Cell Growth (Test/Control (%) at drug concentration): 19.5%
[5]; DU145, 1 μM
  Cell Growth (Test/Control (%) at drug concentration): 62.5%
[5]; DU145, 10 μM
  Cell Growth (Test/Control (%) at drug concentration): 13.5%
[6]; H460, 1 μM
  Cell Growth (Test/Control (%) at drug concentration): 66%
[6]; H460, 10 μM
  Cell Growth (Test/Control (%) at drug concentration): 12%
[7]; 1 μM
  Cell Growth (Test/Control (%) at drug concentration): 48.5%
[7]; 10 μM
  Cell Growth (Test/Control (%) at drug concentration): 20.5%
[8]; MCF7, 1 μM
  Cell Growth (Test/Control (%) at drug concentration): 67%
[8]; MCF7, 10 μM
  Cell Growth (Test/Control (%) at drug concentration): 9%
[9]; MDA231, 1 μM
  Cell Growth (Test/Control (%) at drug concentration): 70.5%
[9]; MDA231, 10 μM
  Cell Growth (Test/Control (%) at drug concentration): 13.5%
[10]; MDA468, 1 μM
  Cell Growth (Test/Control (%) at drug concentration): 66%
[10]; MDA468, 10 μM
  Cell Growth (Test/Control (%) at drug concentration): 9%
[11]; OVCAR3, 1 μM
  Cell Growth (Test/Control (%) at drug concentration): 73.5%
[11]; OVCAR3, 10 μM
  Cell Growth (Test/Control (%) at drug concentration): 39%
[12]; SF268, 1 μM
  Cell Growth (Test/Control (%) at drug concentration): 62.5%
[12]; SF268, 10 μM
  Cell Growth (Test/Control (%) at drug concentration): 12%
[13]; [15]
  IC50: 2000 nM
  Mean IC70: 4.5 µM
[14]
  Kd: 1.1 nM
